Source: publication PMC11129182, “Development of Inhibitors, Probes, and PROTAC Provides a Complete Toolbox to Study PARK7 in the Living Cell” (Journal of Medicinal Chemistry, 2024)

Each molecule was assayed against T1, PARK7 (Homo sapiens, UniProt Q99497) (assay: High-throughput screen of the crude compound library, PARK7 fluorescence polarization (FP) assay with FP reagent JYQ-107). Conditions: 1.25 µM, crude compound library, FP reagent JYQ-107; read-out: HTS FP assay %Inhibition (1.25 µM).
T1 sequence (Q99497 1-189): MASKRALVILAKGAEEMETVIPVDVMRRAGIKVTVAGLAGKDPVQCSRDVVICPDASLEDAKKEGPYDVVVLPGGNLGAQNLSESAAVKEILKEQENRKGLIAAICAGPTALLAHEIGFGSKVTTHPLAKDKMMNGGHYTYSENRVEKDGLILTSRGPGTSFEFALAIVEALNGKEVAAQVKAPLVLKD
Assay type: biochemical

inhibition at 1.25 µM [%] | Structure (SMILES)
61.9 | N#CN1CC[C@@H](C(=O)Nc2nc3c(s2)CN(C(=O)Cc2csc(-c4ccccc4)n2)CC3)C1 [compound 346]
87.5 | Cc1ccccc1-n1cc(C(=O)N2CCc3nc(NC(=O)[C@@H]4CCN(C#N)C4)sc3C2)cn1 [compound 347]
71.9 | N#CN1CC[C@@H](C(=O)Nc2nc3c(s2)CN(C(=O)c2cccnc2-n2cccn2)CC3)C1 [compound 348]
59.6 | CCn1nc(C(C)C)cc1C(=O)N1CCCCC1C(=O)N1CCc2nc(NC(=O)[C@@H]3CCN(C#N)C3)sc2C1 (stereo partly shown) [compound 349]
84.3 | Cn1nc(C2CCC2)cc1C(=O)N1CCc2nc(NC(=O)[C@@H]3CCN(C#N)C3)sc2C1 [compound 350]
88.9 | N#CN1CC[C@@H](C(=O)Nc2nc3c(s2)CN(C(=O)c2cccc(Oc4nccs4)c2)CC3)C1 [compound 351]

Same assay, conditions: 1.25 µM, crude compound library; read-out: HTS FP assay %Inhibition (1.25 µM)

inhibition at 1.25 µM [%] | Structure (SMILES)
83.3 | N#CN1CC[C@@H](C(=O)Nc2nc3c(s2)CN(C(=O)c2ccc(Cn4cccn4)s2)CC3)C1 [compound 272]
67.4 | N#CN1CC[C@@H](C(=O)Nc2nc3c(s2)CN(C(=O)C2CC4CCC2O4)CC3)C1 (stereo partly shown) [compound 273]
72 | N#CN1CC[C@@H](C(=O)Nc2nc3c(s2)CN(C(=O)C2CC4C=CC2O4)CC3)C1 (stereo partly shown) [compound 275]
74.3 | N#CN1CC[C@@H](C(=O)Nc2nc3c(s2)CN(C(=O)C2CC=CCC2C(=O)N2CCOCC2)CC3)C1 (stereo partly shown) [compound 276]
64.6 | N#CN1CC[C@@H](C(=O)Nc2nc3c(s2)CN(C(=O)c2cccc(N4CCOCC4)n2)CC3)C1 [compound 277]
80.6 | N#CN1CC[C@@H](C(=O)Nc2nc3c(s2)CN(C(=O)c2cccc(Cn4cncn4)c2)CC3)C1 [compound 278]
81.9 | N#CN1CC[C@@H](C(=O)Nc2nc3c(s2)CN(C(=O)c2ccc(Cn4ccnn4)o2)CC3)C1 [compound 280]
62.3 | Cc1onc(C(=O)N2CCc3nc(NC(=O)[C@@H]4CCN(C#N)C4)sc3C2)c1CN1CCOCC1 [compound 281]
72.8 | N#CN1CC[C@@H](C(=O)Nc2nc3c(s2)CN(C(=O)C2CCN(S(=O)(=O)N4CCCCC4)CC2)CC3)C1 [compound 282]
65.2 | CC1(C(=O)N2CCc3nc(NC(=O)[C@@H]4CCN(C#N)C4)sc3C2)CCCCN1C(=O)OCc1ccccc1 (stereo partly shown) [compound 283]
75.9 | N#CN1CC[C@@H](C(=O)Nc2nc3c(s2)CN(C(=O)c2sccc2S(=O)(=O)NC2CCCCCC2)CC3)C1 [compound 284]
81.3 | CCn1nccc1-c1cc(C(=O)N2CCc3nc(NC(=O)[C@@H]4CCN(C#N)C4)sc3C2)no1 [compound 285]
81.9 | N#CN1CC[C@@H](C(=O)Nc2nc3c(s2)CN(C(=O)c2cccc(C(=O)N4CCCC4)n2)CC3)C1 [compound 286]
64.1 | N#CN1CC[C@@H](C(=O)Nc2nc3c(s2)CN(C(=O)[C@@H]2CCCO[C@H]2c2ccccc2)CC3)C1 [compound 287]
78.6 | N#CN1CC[C@@H](C(=O)Nc2nc3c(s2)CN(C(=O)C2CCCN(S(=O)(=O)c4cccs4)C2)CC3)C1 (stereo partly shown) [compound 288]
81.4 | N#CN1CC[C@@H](C(=O)Nc2nc3c(s2)CN(C(=O)c2ccc(Cn4cc(Cl)c(C(F)(F)F)n4)o2)CC3)C1 [compound 289]
67.7 | COc1ccc(C(=O)N2CCc3nc(NC(=O)[C@@H]4CCN(C#N)C4)sc3C2)cc1S(=O)(=O)N(C)CCc1cccnc1 [compound 290]
79.8 | N#CN1CC[C@@H](C(=O)Nc2nc3c(s2)CN(C(=O)CC2CCN(c4ccc(C(F)(F)F)cn4)CC2)CC3)C1 [compound 291]
73.8 | N#CN1CC[C@@H](C(=O)Nc2nc3c(s2)CN(C(=O)c2cccnc2-n2cncn2)CC3)C1 [compound 292]
78.1 | CCc1ccc(C(=O)N2CCC(C(=O)N3CCc4nc(NC(=O)[C@@H]5CCN(C#N)C5)sc4C3)CC2)o1 [compound 294]

inhibition at 1.25 µM [%] | Structure (SMILES)
73.2 | Cc1nc(-c2ccsc2)ccc1C(=O)N1CCc2nc(NC(=O)[C@@H]3CCN(C#N)C3)sc2C1 [compound 296]
56.1 | CN(C)S(=O)(=O)c1ccc(N2CCCCC2)c(C(=O)N2CCc3nc(NC(=O)[C@@H]4CCN(C#N)C4)sc3C2)c1 [compound 297]
79.5 | N#CN1CC[C@@H](C(=O)Nc2nc3c(s2)CN(C(=O)c2cnc(Cc4ccc(F)cc4)s2)CC3)C1 [compound 298]
87.8 | Cc1cc(C)cc(N(CCC(=O)N2CCc3nc(NC(=O)[C@@H]4CCN(C#N)C4)sc3C2)S(=O)(=O)c2ccc(Cl)cc2)c1 [compound 299]
86.1 | N#CN1CC[C@@H](C(=O)Nc2nc3c(s2)CN(C(=O)c2csc(CCc4ccccc4)n2)CC3)C1 [compound 300]
85.9 | N#CN1CC[C@@H](C(=O)Nc2nc3c(s2)CN(C(=O)c2ccc(-c4nnco4)cc2)CC3)C1 [compound 301]
66.3 | N#CN1CC[C@@H](C(=O)Nc2nc3c(s2)CN(C(=O)c2ccccc2Cn2cncn2)CC3)C1 [compound 302]
80.8 | N#CN1CC[C@@H](C(=O)Nc2nc3c(s2)CN(C(=O)Cc2cnn(Cc4ccccc4)c2)CC3)C1 [compound 303]
74.8 | CNS(=O)(=O)c1ccc(-c2ccc(Cl)c(Cl)c2)c(C(=O)N2CCc3nc(NC(=O)[C@@H]4CCN(C#N)C4)sc3C2)c1 [compound 305]
76 | N#CN1CC[C@@H](C(=O)Nc2nc3c(s2)CN(C(=O)Cc2csc(N4CCCC4=O)n2)CC3)C1 [compound 306]
84.8 | CC1CN(S(=O)(=O)c2ccc(C(=O)N3CCc4nc(NC(=O)[C@@H]5CCN(C#N)C5)sc4C3)cc2)CC(C)O1 (stereo partly shown) [compound 307]
64.6 | Cc1ncsc1C(=O)N(C)c1ccccc1C(=O)N1CCc2nc(NC(=O)[C@@H]3CCN(C#N)C3)sc2C1 [compound 308]
80.2 | N#CN1CC[C@@H](C(=O)Nc2nc3c(s2)CN(C(=O)Cc2ccc(-n4cccc4)cc2)CC3)C1 [compound 309]
85.3 | N#CN1CC[C@@H](C(=O)Nc2nc3c(s2)CN(C(=O)c2sccc2-n2cccc2)CC3)C1 [compound 310]
85.7 | Cc1ccc(Oc2ccc(C(=O)N3CCc4nc(NC(=O)[C@@H]5CCN(C#N)C5)sc4C3)nc2)cc1 [compound 316]
76.2 | N#CN1CC[C@@H](C(=O)Nc2nc3c(s2)CN(C(=O)c2ccc(OCc4cccnc4)cc2)CC3)C1 [compound 317]
65.8 | CCn1cc([C@@H]2OCCC[C@H]2C(=O)N2CCc3nc(NC(=O)[C@@H]4CCN(C#N)C4)sc3C2)cn1 [compound 318]
75.9 | N#CN1CC[C@@H](C(=O)Nc2nc3c(s2)CN(C(=O)c2ccc(C#Cc4ccccc4)cc2)CC3)C1 [compound 319]
64.2 | N#CN1CC[C@@H](C(=O)Nc2nc3c(s2)CN(C(=O)C2CCN2C2CCCC2)CC3)C1 (stereo partly shown) [compound 320]
81.4 | N#CN1CC[C@@H](C(=O)Nc2nc3c(s2)CN(C(=O)c2cc(S(=O)(=O)Nc4nccs4)ccc2F)CC3)C1 [compound 321]

inhibition at 1.25 µM [%] | Structure (SMILES)
67.1 | N#CN1CC[C@@H](C(=O)Nc2nc3c(s2)CN(C(=O)C2CCCN2C(=O)C2CC2)CC3)C1 (stereo partly shown) [compound 322]
67.7 | N#CN1CC[C@@H](C(=O)Nc2nc3c(s2)CN(C(=O)C(OC2CCOCC2)c2ccccc2)CC3)C1 (stereo partly shown) [compound 323]
64.4 | N#CN1CC[C@@H](C(=O)Nc2nc3c(s2)CN(C(=O)CCn2ccc(C(=O)N4CCCC4)n2)CC3)C1 [compound 324]
86.9 | N#CN1CC[C@@H](C(=O)Nc2nc3c(s2)CN(C(=O)c2ccccc2OCc2cccs2)CC3)C1 [compound 325]
69.7 | N#CN1CC[C@@H](C(=O)Nc2nc3c(s2)CN(C(=O)c2c[nH]nc2-c2ccncc2)CC3)C1 [compound 326]
70 | COc1ccccc1N1CC(C(=O)N2CCc3nc(NC(=O)[C@@H]4CCN(C#N)C4)sc3C2)CCC1=O (stereo partly shown) [compound 327]
79.7 | Cn1nccc1[C@@H]1C[C@H]1C(=O)N1CCc2nc(NC(=O)[C@@H]3CCN(C#N)C3)sc2C1 [compound 328]
71.1 | N#CN1CC[C@@H](C(=O)Nc2nc3c(s2)CN(C(=O)C2CCCN(c4ncccn4)C2)CC3)C1 (stereo partly shown) [compound 329]
64.2 | N#CN1CC[C@@H](C(=O)Nc2nc3c(s2)CN(C(=O)c2ccc(-c4ccncc4)[nH]c2=O)CC3)C1 [compound 330]
57.9 | Cc1onc(C(=O)N2CCc3nc(NC(=O)[C@@H]4CCN(C#N)C4)sc3C2)c1CN1CCN(C)CC1 [compound 331]
73.2 | N#CN1CC[C@@H](C(=O)Nc2nc3c(s2)CN(C(=O)c2cccn2Cc2ccccn2)CC3)C1 [compound 332]
79.4 | N#CN1CC[C@@H](C(=O)Nc2nc3c(s2)CN(C(=O)c2cc(COc4ccc(F)cc4F)on2)CC3)C1 [compound 335]
68.4 | Cc1cc(C)n(-c2ccc(Cl)c(C(=O)N3CCc4nc(NC(=O)[C@@H]5CCN(C#N)C5)sc4C3)n2)n1 [compound 338]
82.7 | N#CN1CC[C@@H](C(=O)Nc2nc3c(s2)CN(C(=O)Cc2csc(NS(=O)(=O)c4ccccc4)n2)CC3)C1 [compound 339]
87 | N#CN1CC[C@@H](C(=O)Nc2nc3c(s2)CN(C(=O)Cc2coc(-c4cccs4)n2)CC3)C1 [compound 341]
85.1 | COc1ccc(S(=O)(=O)N(CCC(=O)N2CCc3nc(NC(=O)[C@@H]4CCN(C#N)C4)sc3C2)Cc2ccccc2)cc1 [compound 342]
74.3 | Cc1oc(-c2ccsc2)nc1CC(=O)N1CCc2nc(NC(=O)[C@@H]3CCN(C#N)C3)sc2C1 [compound 343]
72 | Cc1ccc(C=CS(=O)(=O)N2CCC(C(=O)N3CCc4nc(NC(=O)[C@@H]5CCN(C#N)C5)sc4C3)CC2)cc1 [compound 344]
